The source of these data is patent publication US11834453B2, “Substituted pyrimido[5,4-d]pyrimidines as HER2 inhibitors” (Array BioPharma Inc., priority 2020, dated 2023).

The target of one test is ErbB2 WT (Homo sapiens (Human), UniProt P04626). Briefly: ErbB enzyme assay (CisBio HTRF KinEASE-TK), Assay 2. The test is classed as biochemical. On the procedure: Compound potencies were determined using CisBio's HTRF Kinease-TK assay technology. The kinases were incubated with 250 nM TK-substrate biotin (CisBio, part of cat #62TK0PEC) at 1 mM ATP along with test compounds in a buffer consisting of 25 mM HEPES, pH 7.4, 10 mM MgCl2, 0.01% Triton X-100, and 2% DMSO in a volume of 8 μL. […] After 30-minute incubation at 22° C., the reaction was quenched by adding 8 μL of quench solution containing 62.5 nM Sa-XL665 and 0.25× TK-Ab-Cryptate in HTRF detection buffer (all from CisBio, part of cat #62TK0PEC). After a 1-hour incubation at 22° C., the extent of reaction was determined using a PerkinElmer EnVision multimode plate reader via HTRF dual wavelength detection, and the percent of control (POC) was calculated using a ratiometric emission factor. One hundred POC was determined using DMSO only samples (no compound present), and 0 POC was determined using pre-quenched control reactions.
Sequence of ErbB2 WT (P04626 23-1255): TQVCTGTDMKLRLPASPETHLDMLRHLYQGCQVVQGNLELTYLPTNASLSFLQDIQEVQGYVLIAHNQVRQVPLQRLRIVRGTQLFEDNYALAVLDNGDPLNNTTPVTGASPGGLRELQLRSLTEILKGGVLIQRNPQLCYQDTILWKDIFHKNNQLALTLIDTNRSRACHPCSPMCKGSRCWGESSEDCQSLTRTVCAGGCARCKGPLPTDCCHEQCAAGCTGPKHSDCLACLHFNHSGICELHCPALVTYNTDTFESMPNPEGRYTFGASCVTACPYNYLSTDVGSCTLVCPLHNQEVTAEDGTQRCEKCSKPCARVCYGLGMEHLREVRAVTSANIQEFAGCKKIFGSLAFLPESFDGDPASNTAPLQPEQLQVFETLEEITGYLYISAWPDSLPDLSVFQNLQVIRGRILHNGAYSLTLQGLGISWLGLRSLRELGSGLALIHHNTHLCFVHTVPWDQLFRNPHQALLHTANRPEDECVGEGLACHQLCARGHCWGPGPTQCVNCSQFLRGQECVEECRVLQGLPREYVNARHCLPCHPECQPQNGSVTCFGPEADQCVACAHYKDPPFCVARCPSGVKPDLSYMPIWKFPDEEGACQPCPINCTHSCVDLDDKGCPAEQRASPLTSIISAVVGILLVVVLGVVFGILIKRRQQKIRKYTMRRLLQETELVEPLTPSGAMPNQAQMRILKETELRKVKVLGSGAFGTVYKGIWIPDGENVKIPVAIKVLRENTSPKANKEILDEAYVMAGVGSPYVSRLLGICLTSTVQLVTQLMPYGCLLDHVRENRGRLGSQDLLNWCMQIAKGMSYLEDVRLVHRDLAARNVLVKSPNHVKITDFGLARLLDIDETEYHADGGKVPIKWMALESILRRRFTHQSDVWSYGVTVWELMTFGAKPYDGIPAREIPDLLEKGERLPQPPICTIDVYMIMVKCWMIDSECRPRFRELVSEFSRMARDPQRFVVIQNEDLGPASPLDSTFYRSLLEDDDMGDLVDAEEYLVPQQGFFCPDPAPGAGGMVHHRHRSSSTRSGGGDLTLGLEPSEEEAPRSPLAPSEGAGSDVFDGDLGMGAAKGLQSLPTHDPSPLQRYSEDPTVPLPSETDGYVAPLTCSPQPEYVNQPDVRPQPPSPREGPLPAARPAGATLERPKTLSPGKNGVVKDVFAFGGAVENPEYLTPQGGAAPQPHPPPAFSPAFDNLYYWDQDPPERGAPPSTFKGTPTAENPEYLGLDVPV
(§1) Enzyme lots and concentration used are in Table 2.

Test [1] deals with ErbB2 insYVMA (HER2-YVMA, SEQ ID NO: 2) (Homo sapiens, UniProt P04626, INS775YVMA/P1170A). In words: biochemical. Conditions: ErbB2 insYVMA enzyme assay; read-out: Assay 1 IC50.
Sequence of ErbB2 insYVMA (HER2-YVMA, SEQ ID NO: 2) (P04626 with tags, fused parts or gaps INS775YVMA/P1170A limits assumed): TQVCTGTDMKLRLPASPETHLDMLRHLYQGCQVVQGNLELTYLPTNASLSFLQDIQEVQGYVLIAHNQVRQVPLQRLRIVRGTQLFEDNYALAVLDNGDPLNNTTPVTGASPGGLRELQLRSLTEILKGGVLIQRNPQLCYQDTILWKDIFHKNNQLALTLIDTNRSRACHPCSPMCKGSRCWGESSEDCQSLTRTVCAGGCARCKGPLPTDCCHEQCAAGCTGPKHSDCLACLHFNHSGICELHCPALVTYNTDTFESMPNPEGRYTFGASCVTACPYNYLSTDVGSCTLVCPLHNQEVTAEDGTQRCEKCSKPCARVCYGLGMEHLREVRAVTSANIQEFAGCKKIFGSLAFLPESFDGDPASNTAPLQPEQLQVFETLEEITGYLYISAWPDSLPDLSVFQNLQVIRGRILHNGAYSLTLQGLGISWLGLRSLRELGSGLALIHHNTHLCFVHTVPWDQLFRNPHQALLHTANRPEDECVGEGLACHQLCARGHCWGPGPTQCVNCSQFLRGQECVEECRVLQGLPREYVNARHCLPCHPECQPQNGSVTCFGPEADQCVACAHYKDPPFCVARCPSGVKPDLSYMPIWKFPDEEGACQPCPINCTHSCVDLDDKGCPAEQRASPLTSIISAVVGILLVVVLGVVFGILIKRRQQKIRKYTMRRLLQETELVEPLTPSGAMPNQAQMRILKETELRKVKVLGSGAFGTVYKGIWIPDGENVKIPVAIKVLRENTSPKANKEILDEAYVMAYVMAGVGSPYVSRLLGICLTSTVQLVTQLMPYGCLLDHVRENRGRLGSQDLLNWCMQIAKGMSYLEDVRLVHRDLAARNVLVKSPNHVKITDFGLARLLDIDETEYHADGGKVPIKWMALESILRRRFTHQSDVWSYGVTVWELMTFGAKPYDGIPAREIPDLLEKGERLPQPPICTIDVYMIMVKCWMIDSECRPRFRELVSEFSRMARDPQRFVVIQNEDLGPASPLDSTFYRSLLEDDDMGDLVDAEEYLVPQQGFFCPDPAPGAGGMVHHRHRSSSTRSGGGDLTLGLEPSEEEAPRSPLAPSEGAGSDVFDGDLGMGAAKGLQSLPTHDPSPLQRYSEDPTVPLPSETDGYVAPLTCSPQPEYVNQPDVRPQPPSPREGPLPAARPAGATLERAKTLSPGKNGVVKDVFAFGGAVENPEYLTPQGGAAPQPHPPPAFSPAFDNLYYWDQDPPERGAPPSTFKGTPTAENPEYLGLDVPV
In a further test the target is EGFR (Homo sapiens (Human), UniProt P00533). In words: ErbB enzyme assay (CisBio HTRF KinEASE-TK), Assay 3. It is filed as biochemical. How it is done:
Compound potencies were determined using CisBio's HTRF Kinease-TK assay technology. The kinases were incubated with 250 nM TK-substrate biotin (CisBio, part of cat #62TK0PEC) at 1 mM ATP along with test compounds in a buffer consisting of 25 mM HEPES, pH 7.4, 10 mM MgCl2, 0.01% Triton X-100, and 2% DMSO in a volume of 8 μL. Compounds were prepared as a three-fold serial dilution in DMSO and added to the assay to give the appropriate final concentration. After 30-minute incubation at 22° C., the reaction was quenched by adding 8 μL of quench solution containing 62.5 nM Sa-XL665 and 0.25× TK-Ab-Cryptate in HTRF detection buffer (all from CisBio, part of cat #62TK0PEC). After a 1-hour incubation at 22° C., the extent of reaction was determined using a PerkinElmer EnVision multimode plate reader via HTRF dual wavelength detection, and the percent of control (POC) was calculated using a ratiometric emission factor. One hundred POC was determined using DMSO only samples (no compound present), and 0 POC was determined using pre-quenched control reactions. A 4-parameter logistic curve was fit to the POC values as a function of the concentration of compound, and the IC50 value was the point where the best-fit curve crossed 50 POC.
as §1

Test [2] deals with ErbB2 with Exon 20 YVMA insertion (HER2-YVMA) (Homo sapiens (Human), UniProt P04626, INS775YVMA). Briefly: Cellular phosphorylation assay, constitutive ErbB2 phosphorylation (Y1196) in engineered NIH 3T3 cells, Assay 4. The test is classed as cell-based. On the procedure:
Serially diluted compounds were added to the plates for 1 hour at 37° C./5% CO2. EGFR WT cells were stimulated with 100 ng/ml rEGF for an additional 10 minutes at 37° C./5% CO2. After compound incubation, medium was removed from the cells, which were then fixed in 3.7% formaldehyde in PBS at room temperature for 20 minutes. Following a wash with PBS, cells were permeabilized with 100% methanol at room temperature for 10 minutes. Cells were then washed with PBS/0.05% Tween-20 and blocked with Odyssey blocking buffer (LI-COR Biosciences) for at least 1 hour at room temperature. Antibodies to phosphorylated ErbB2 (Y1196, Cell Signaling #6942) or phosphorylated EGFR (Y1068, Cell Signaling #3777) and GAPDH (Millipore #MAB374) were added to the cells in blocking buffer containing 0.05% azide and incubated overnight at 4° C. After washing with PBS/0.05° i° Tween-20, the cells were incubated with fluorescently labeled secondary anti-rabbit antibody (LiCOR, IRDye 800CW #926-32211) and anti-mouse antibody (Molecular Probes, Alexa Fluor 680 #A21058) for 1 hour at room temperature in the dark. Cells were then washed and analyzed for fluorescence at both wavelengths using the Odyssey Infrared Imaging System (LI-COR Biosciences). Phosphorylated ErbB2 and EGFR signal was normalized to GAPDH signal to generate curves and calculate IC50 values.

Sequence of ErbB2 with Exon 20 YVMA insertion (HER2-YVMA) (P04626 other isoform, or with tags, fused parts or gaps ins YVMA behind 775): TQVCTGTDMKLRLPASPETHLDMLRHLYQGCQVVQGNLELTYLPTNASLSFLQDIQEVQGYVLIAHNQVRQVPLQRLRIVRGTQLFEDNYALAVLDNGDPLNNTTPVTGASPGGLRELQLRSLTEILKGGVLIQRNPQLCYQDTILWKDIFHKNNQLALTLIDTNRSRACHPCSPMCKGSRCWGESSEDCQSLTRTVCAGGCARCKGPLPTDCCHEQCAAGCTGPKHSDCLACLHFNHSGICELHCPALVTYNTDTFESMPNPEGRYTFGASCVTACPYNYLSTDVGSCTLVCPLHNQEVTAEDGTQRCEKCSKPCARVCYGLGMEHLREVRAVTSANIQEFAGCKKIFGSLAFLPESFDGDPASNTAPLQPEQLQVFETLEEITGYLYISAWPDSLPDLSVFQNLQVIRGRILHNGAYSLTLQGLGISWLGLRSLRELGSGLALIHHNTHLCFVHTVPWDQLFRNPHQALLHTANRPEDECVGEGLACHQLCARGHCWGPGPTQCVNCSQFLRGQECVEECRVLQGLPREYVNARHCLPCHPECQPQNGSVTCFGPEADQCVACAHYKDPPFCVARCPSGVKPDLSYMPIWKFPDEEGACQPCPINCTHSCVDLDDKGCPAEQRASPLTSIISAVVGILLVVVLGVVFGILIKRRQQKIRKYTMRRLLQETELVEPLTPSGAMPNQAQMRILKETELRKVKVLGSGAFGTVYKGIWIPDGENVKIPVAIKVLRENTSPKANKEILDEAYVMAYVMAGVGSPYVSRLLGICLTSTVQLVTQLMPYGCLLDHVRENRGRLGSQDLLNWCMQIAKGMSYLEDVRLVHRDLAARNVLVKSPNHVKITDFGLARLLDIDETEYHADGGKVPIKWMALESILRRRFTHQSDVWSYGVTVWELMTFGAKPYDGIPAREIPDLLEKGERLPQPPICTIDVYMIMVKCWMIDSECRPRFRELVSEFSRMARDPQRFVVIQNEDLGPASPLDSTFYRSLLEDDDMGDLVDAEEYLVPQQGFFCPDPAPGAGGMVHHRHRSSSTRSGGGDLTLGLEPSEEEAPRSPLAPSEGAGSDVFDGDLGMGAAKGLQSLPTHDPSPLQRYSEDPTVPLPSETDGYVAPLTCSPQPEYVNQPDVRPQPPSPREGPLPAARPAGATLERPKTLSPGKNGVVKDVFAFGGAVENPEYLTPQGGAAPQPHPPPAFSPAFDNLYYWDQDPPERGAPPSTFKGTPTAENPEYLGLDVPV
Sequence of EGFR (P00533 25-1210): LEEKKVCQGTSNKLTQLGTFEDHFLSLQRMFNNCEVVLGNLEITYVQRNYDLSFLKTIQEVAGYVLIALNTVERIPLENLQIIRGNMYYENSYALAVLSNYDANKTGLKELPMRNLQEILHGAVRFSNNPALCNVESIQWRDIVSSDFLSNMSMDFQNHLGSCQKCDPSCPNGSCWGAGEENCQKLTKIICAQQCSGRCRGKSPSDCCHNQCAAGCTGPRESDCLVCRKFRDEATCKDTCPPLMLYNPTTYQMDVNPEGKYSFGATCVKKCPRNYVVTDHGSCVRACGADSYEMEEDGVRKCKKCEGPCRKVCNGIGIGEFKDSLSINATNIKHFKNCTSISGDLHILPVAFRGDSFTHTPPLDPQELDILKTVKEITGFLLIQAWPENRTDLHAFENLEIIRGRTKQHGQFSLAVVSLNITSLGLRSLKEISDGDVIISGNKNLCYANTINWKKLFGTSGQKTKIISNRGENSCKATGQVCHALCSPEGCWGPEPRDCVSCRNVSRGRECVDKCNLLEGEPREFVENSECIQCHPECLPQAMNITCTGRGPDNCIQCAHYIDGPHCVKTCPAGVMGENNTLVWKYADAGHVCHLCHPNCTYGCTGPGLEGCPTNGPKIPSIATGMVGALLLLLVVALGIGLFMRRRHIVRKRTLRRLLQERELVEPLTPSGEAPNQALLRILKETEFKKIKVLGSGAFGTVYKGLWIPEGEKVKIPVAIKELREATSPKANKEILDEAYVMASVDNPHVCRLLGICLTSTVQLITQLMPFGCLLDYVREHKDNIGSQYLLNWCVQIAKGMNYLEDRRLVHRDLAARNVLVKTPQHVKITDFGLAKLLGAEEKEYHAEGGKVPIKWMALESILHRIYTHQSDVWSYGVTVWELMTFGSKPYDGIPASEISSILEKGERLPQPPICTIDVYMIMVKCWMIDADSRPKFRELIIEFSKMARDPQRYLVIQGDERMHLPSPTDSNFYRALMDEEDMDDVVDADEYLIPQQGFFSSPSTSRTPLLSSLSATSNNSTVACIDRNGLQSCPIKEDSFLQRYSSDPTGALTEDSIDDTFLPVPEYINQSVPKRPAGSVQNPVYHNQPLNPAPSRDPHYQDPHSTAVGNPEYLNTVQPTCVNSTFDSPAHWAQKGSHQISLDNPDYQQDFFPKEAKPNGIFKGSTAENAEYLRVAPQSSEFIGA

On to `Cc1cc(Nc2ncnc3cnc(N4CCCC(OC(F)F)C4)nc23)ccc1Oc1ccc2c(c1)ncn2C` (racemic) [Example 40, 6-(3-(difluoromethoxy)piperidin-1-yl)-N-(3-methyl-4-((1-methyl-1H-benzo[d]imidazol-5-yl)oxy)phenyl)pyrimido[5,4-d]pyrimidin-4-amine], for which the IC50 was 145 nM at ErbB2 WT, 71.5 nM in test [1], ≥ 10000 nM at EGFR and 91.5 nM in test [2].
For `Cc1cc(Nc2ncnc3cnc(N4CC5(CCOC5)C4)nc23)ccc1Oc1ccc2c(c1)ncn2C` [Example 21, N-(3-methyl-4-((1-methyl-1H-benzo[d]imidazol-5-yl)oxy)phenyl)-6-(6-oxa-2-azaspiro[3.4]octan-2-yl)pyrimido[5,4-d]pyrimidin-4-amine], in that order: 98.4 nM, 33.7 nM, 1000 nM and 82.7 nM.
For `CC(=O)N1CC2CC(C1)N2c1ncc2ncnc(Nc3ccc(Oc4ccc5c(c4)ncn5C)c(C)c3)c2n1` [Example 23, 1-(6-(8-((3-methyl-4-((1-methyl-1H-benzo[d]imidazol-5-yl)oxy)phenyl)amino)pyrimido[5,4-d]pyrimidin-2-yl)-3,6-diazabicyclo[3.1.1]heptan-3-yl)ethan-1-one], in that order: 1340 nM, 313 nM, ≥ 10000 nM and 717 nM.
Turning to `Cc1cc(Nc2ncnc3cnc(N4CC5CC(C4)N5C)nc23)ccc1Oc1ccc2c(c1)ncn2C` [Example 33, N-(3-methyl-4-((1-methyl-1H-benzo[d]imidazol-5-yl)oxy)phenyl)-6-(6-methyl-3,6-diazabicyclo[3.1.1]heptan-3-yl)pyrimido[5,4-d]pyrimidin-4-amine], the IC50 against ErbB2 WT was 371 nM; in test [1], 100 nM; on EGFR, ≥ 10000 nM; in test [2] it was 583 nM.
With `Cc1cc(Nc2ncnc3cnc(N4CC(C(F)F)C4)nc23)ccc1Oc1ccc2c(c1)ncn2C` [Example 37, 6-(3-(difluoromethyl)azetidin-1-yl)-N-(3-methyl-4-((1-methyl-1H-benzo[d]imidazol-5-yl)oxy)phenyl)pyrimido[5,4-d]pyrimidin-4-amine], the IC50 at ErbB2 WT was 393 nM; in test [1], 78.8 nM; against EGFR, ≥ 10000 nM; in test [2], 174 nM.
For `Cc1cc(Nc2ncnc3cnc(N4CC5CC(C5)C4)nc23)ccc1Oc1ccc2c(c1)ncn2C` [Example 39, 6-(3-azabicyclo[3.1.1]heptan-3-yl)-N-(3-methyl-4-((1-methyl-1H-benzo[d]imidazol-5-yl)oxy)phenyl)pyrimido[5,4-d]pyrimidin-4-amine], in that order: 358 nM, 199 nM, ≥ 10000 nM and 292 nM.
For `Cc1cnc(-c2ncc3ncnc(Nc4ccc(Oc5ccc6c(c5)ncn6C)c(C)c4)c3n2)s1` [Example 41, N-(3-methyl-4-((1-methyl-1H-benzo[d]imidazol-5-yl)oxy)phenyl)-6-(5-methylthiazol-2-yl)pyrimido[5,4-d]pyrimidin-4-amine], in that order: 234 nM, 196 nM, ≥ 10000 nM and 53 nM.
On to `COC1CN(c2ncc3ncnc(Nc4ccc(Oc5ccc6c(c5)ncn6C)c(C)c4)c3n2)C1` [Example 43, 6-(3-methoxyazetidin-1-yl)-N-(3-methyl-4-((1-methyl-1H-benzo[d]imidazol-5-yl)oxy)phenyl)pyrimido[5,4-d]pyrimidin-4-amine], for which the 50% inhibitory concentration (IC50) was 59.8 nM on ErbB2 WT, 28.8 nM in test [1], ≥ 10000 nM on EGFR and 92.1 nM in test [2].
Regarding `Cc1cc(Nc2ncnc3cnc(NC4CCC4(F)F)nc23)ccc1Oc1ccc2c(c1)ncn2C` (centres unmarked) [Example 52, N2-(2,2-difluorocyclobutyl)-N8-(3-methyl-4-((1-methyl-1H-benzo[d]imidazol-5-yl)oxy)phenyl)pyrimido[5,4-d]pyrimidine-2,8-diamine], the IC50 on ErbB2 WT is 317 nM; in test [1], 100 nM; at EGFR, ≥ 10000 nM; in test [2] it was 160 nM.
For `Cc1cc(Nc2ncnc3cnc(N4CCC[C@H]4C(F)F)nc23)ccc1Oc1ccc2c(c1)ncn2C` [Example 55, (S)-6-(2-(difluoromethyl)pyrrolidin-1-yl)-N-(3-methyl-4-((1-methyl-1H-benzo[d]imidazol-5-yl)oxy)phenyl)pyrimido[5,4-d]pyrimidin-4-amine], in that order: 260 nM, 110 nM, ≥ 10000 nM and 98.4 nM.
For `Cc1cc(Nc2ncnc3cnc(N4CCC[C@@H]4C(F)F)nc23)ccc1Oc1ccc2c(c1)ncn2C` [Example 56, (R)-6-(2-(difluoromethyl)pyrrolidin-1-yl)-N-(3-methyl-4-((1-methyl-1H-benzo[d]imidazol-5-yl)oxy)phenyl)pyrimido[5,4-d]pyrimidin-4-amine], in that order: 403 nM, 205 nM, ≥ 10000 nM and 105 nM.
For `Cc1cc(Nc2ncnc3cnc(N[C@@H](C)COC(F)(F)F)nc23)ccc1Oc1ccc2c(c1)ncn2C` [Example 63, (S)—N8-(3-methyl-4-((1-methyl-1H-benzo[d]imidazol-5-yl)oxy)phenyl)-N2-(1-(trifluoromethoxy)propan-2-yl)pyrimido[5,4-d]pyrimidine-2,8-diamine], in that order: 862 nM, 195 nM, ≥ 10000 nM and 191 nM.
`Cc1cc(Nc2ncnc3cnc(O[C@@H]4CNC[C@@H]4F)nc23)ccc1Oc1ccc2c(c1)ncn2C` [Example 86, 6-(((3R,4S)-4-fluoropyrrolidin-3-yl)oxy)-N-(3-methyl-4-((1-methyl-1H-benzo[d]imidazol-5-yl)oxy)phenyl)pyrimido[5,4-d]pyrimidin-4-amine]: the figures for the half-inhibitory concentration (IC50) (at ErbB2 WT; against EGFR; in test [2]) were 301 nM, ≥ 10000 nM and 261 nM, respectively.
For `Cc1cc(Nc2ncnc3cnc(N(C)c4cnn(C)c4)nc23)ccc1Oc1ccc2c(c1)ncn2C` [Example 108, N2-methyl-N2-(1-methyl-1H-pyrazol-4-yl)-N8-(3-methyl-4-((1-methyl-1H-benzo[d]imidazol-5-yl)oxy)phenyl)pyrimido[5,4-d]pyrimidine-2,8-diamine], the IC50 at ErbB2 WT turned out to be 38.9 nM; in test [1], 38.4 nM; at EGFR it was 4310 nM.
Consider `Cc1c(Oc2ccn3ncnc3c2)ccc(Nc2ncnc3cnc(N4C[C@@H]5CC4CO5)nc23)c1F` [Example 313], for which the 50% inhibitory concentration (IC50) against ErbB2 WT was found to be 40.4 nM; in test [1], 21.3 nM.
Take `Cc1cc(Nc2ncnc3cnc(N(C)Cc4ccccc4)nc23)ccc1Oc1ccc2c(c1)ncn2C` [Example 331]: the half-maximal inhibitory concentration (IC50) on ErbB2 WT is 389 nM; in test [1] it was 406 nM; at EGFR it was ≥ 10000 nM.
Regarding `Cc1cc(Nc2ncnc3cnc(N(C)C4CCCOC4)nc23)ccc1Oc1ccc2c(c1)ncn2C` (centres unmarked) [Example 473], the IC50 is 20 nM against ErbB2 WT and 21.6 nM in test [1].
For `Cc1cc(Nc2ncnc3cnc(N4CCN(C)[C@H](C)C4)nc23)ccc1Oc1ccc2c(c1)ncn2C` [Example 490], the IC50 on EGFR is ≥ 10000 nM.
